# From patent US8592374B2, “Neurotrophic peptides” (Research Foundation for Mental Hygiene, Inc., priority 2007, dated 2013)
# Entries after “also recorded” stand apart in the source; their conditions may differ. Peptide text beside a SMILES is read from it. * marks the point of attachment. X1 = NC(=O)C12CC3CC(CC(N*)(C3)C1)C2
# Key:
# [1] = General examination (physical state, body weight, exploratory activity, swim speed, floating); format: in vivo, mice; conditions: 25 nmol/day for 35 days
# Description: All in vivo studies for characterization of compounds (stereology and behavioral analysis) were performed on 8-10-month-old female retired breeders of C57Bl6 background. Animals were acclimatized for at least 3 weeks to exclude occasional pregnant mice from the studies. Mice were group-housed (3 animals per cage) with a 12:12 hours light/dark cycle and with free access to food and water.
# (§1) For the compound treatment, mice (8 animals/group) received subcutaneous implants of extended release depot pellets containing P21 or P22 at 25 nmol/day for 35 days of continuous dosing (Innovative Research of America, USA). For the control group (8 animals), pellets consisted of the carrier polymer only. Mice were anesthetized with 2.5% Avertin (0.38 ml for a 25 g animal). Under sterile conditions, pellets were implanted subcutaneously along the anterolateral aspect of the right shoulder with a precision trochar (Innovative Research of America). After recovery of anesthesia, animals were transferred to the animal colony. No complications associated with the implantation and treatment were observed. All procedures on animals were conducted in accordance with approved protocols from our Institutional Animal Welfare Committee.
# The physical state and condition of animals were carefully monitored throughout the treatment by evaluating grooming, physical state and clasping reflex. Body weight was also recorded.
# The test used was an adaptation of the procedure previously described by Sargolini and collaborators (Sargolini, F., et al. Behav Brain Res 138 (2003):153-63). The testing apparatus was a classic open field (i.e. a PVC square arena, 50×50 cm, with walls 40 cm high). The open field was placed in a part of the room separated from the experimentator with a black opaque curtain. The open field was surmounted by a video camera connected to a computer. Three objects were employed in this task. The general procedure consisted of three different phases: a familiarization phase (1 session of 20 min), a sample phase, and a test phase. On the first days, mice were individually submitted to the familiarization session during which they were introduced in the empty arena in order to become familiar with the apparatus. This familiarization session allowed to record a baseline level of locomotor activity (measuring the distance covered in the open field) and of anxiety (measuring the time the animals spent in the centre of the arena during the first five minutes). On the second day each mouse was first submitted to the sample phase (session 1, ten minutes) for which two identical objects were placed in a symmetric position from the centre of the arena. After a 15 minute delay during which the mouse returned to its home cage, it was reintroduced in the arena to perform the test phase (session 2, 10 min). The mouse was then exposed to two objects: a familiar object (previously presented during the sample phase) and a new object, placed at the same location as during the sample phase. Data collection was performed using a video tracking system (Smart version 2.0.14 software, Pan Lab/San Diego Instruments). Object discrimination was calculated as follows: OD=(time spent close to new object)/(time spent close to new object)+(time spent close to old object)×100
# [2] = test system: normal adult mice; test: Open field, time in the centre of the arena (anxiety); format: in vivo; conditions: 25 nmol/day, first five minutes of familiarization session
# Description: as §1
# The test used was an adaptation of the procedure previously described by Sargolini and collaborators (Sargolini, F., et al. Behav Brain Res 138 (2003):153-63). The testing apparatus was a classic open field (i.e. a PVC square arena, 50×50 cm, with walls 40 cm high). The open field was placed in a part of the room separated from the experimentator with a black opaque curtain. […] Object discrimination was calculated as follows: OD=(time spent close to new object)/(time spent close to new object)+(time spent close to old object)×100
# [3] = test system: dentate gyrus; test: Expression of synaptophysin and synapsin I in the DG (optical density); format: in vivo, mice; conditions: 25 nmol/day for 35 days
# Description: For double labeling of BrdU and NeuN, brain sections were pretreated with 2 M HCl at 37° C. for 30 min and neutralized with 0.1 M borate buffer (pH 8.5) for 10 minutes. Tissue sections were incubated first for 30 min with blocking buffer (4% normal goat serum+0.1% Tween-20 in PBS) and then overnight at 4° C. in the presence of BrdU (Millipore Corporation, USA) and NeuN (Millipore Corporation) antibodies diluted 1:400 and 1:100, respectively. To determine the integrity of presynaptic terminals, tissues were labeled with anti-synaptophysin (1:200; Clone SY38, Millipore Corporation) or anti-synapsin I (1:200; Stressgen Biotechnologies Corporation, Canada). The brain sections were incubated in primary antibody over night at 4° C., respectively. Alexa 488 and 594 (1:500; Invitrogen, USA) were used as secondary antibodies. All images were obtained using Nikon Eclipse 90i and D-Eclipse C1 microscopes (Nikon Corporation, Japan).
# For quantitative analysis of the expression of synaptophysin and synapsin I in DG, every tenth section in a series of 40 μm coronal sections throughout the hippocampus was analyzed. The entire area of GCL was outlined. Maximum projection images were then generated based on confocal z-stacks, and antibody staining was quantified by measuring the mean optical density (OD) with the help of NIH Image J program, version 1.32j (http://rsb.info.nih.gov/ij/).
# [4] = test system: LIF-induced STAT3 phosphorylation at Tyr705 in HepG2 cells; test: LIF-induced STAT3 phosphorylation in HepG2 cells (Western blot); format: cell-based, human; conditions: 15 min
# Description: HepG2 cells were treated with different concentrations of P21 together with 0.25 nM LIF for 15 min, and then the STAT3 phosphorylation at Tyr705 (pY-STAT3) was determined by Western blots. The pY-STAT3 value was normalized to total STAT3 expression. Data are presented as percentages of the value from cells treated with 0.25 nM LIF alone (100%). *p<0.05; **p<0.01.
# To investigate the molecular mechanism of action of compound P21 in LIF signaling, HepG2 human hepatoma cell (ATCC, USA) at 80% confluence were treated with different concentrations of P21 and with 0.25 nM LIF (Peprotec, Inc., USA) for 15 min. The cells were lysed and subjected to Western blots developed with antibodies anti-phospho-Tyr 705 STAT3 and anti-STAT3 (Cell signaling Technology, USA).
# To investigate whether P21 affects LIF signaling pathway, HepG2 cells were treated with different concentrations of P21 from 0.01 to 1000 nM along with 0.25 nM LIF for 15 min, and then measured STAT3 phosphorylation by Western blots. […] In HepG2 cells, 10 nM of P21 inhibited ˜30% of LIF-induced phosphorylation of STAT3 (p<0.005, student t-test; FIG. 15).
# [5] = General examination (physical state, body weight, exploratory activity, swim speed, floating); format: in vivo, mice; conditions: 25 nmol/day for 35 days; remark: listed apart in the source
smiles,measurement,setting,value
"CC(=O)N[C@@H](CC(=O)O)C(=O)NCC(=O)NCC(=O)N[C@@H](CC(C)C)C(=O)NC12CC3CC(C1)CC(C(N)=O)(C3)C2 [Peptide P21, Ac-DGGL^AG-NH2] (Ac-DGGL-X1)",exploratory behavior / exploratory activity,[1]; open field,no alteration; also recorded: did not induce any effect
same,body weight,[1]; subcutaneous pellets,no alteration; also recorded: did not induce any effect
same,general physical state,[1]; subcutaneous pellets,no alteration
same,level of anxiety (time in the center of the open field),[2],spent more time in the center of the open field than control animals; also recorded: reduced anxiety level
same,synapsin I immunoreactivity in the GCL and MCL,[3],significantly promoted expression; also recorded: Significant increases
same,synaptophysin immunoreactivity in the GCL and MCL,[3],significantly promoted expression; also recorded: Significant increases
same,inhibition of LIF-induced phosphorylation of STAT3,"[4]; 10 nM P21, 0.25 nM LIF",~30%
same,"LIF-induced STAT3 phosphorylation, concentration dependence","[4]; 0.01 to 1000 nM P21, 0.25 nM LIF",dose-dependent manner; also recorded: inhibited slightly in a dose-dependent manner
same,floating behavior in the water maze task (sign of depression or locomotor impairment),[5],no floating behavior was observed
same,swim speed,[5]; water maze,no alteration; also recorded: did not induce any effect
